Test results from patent US20260007681A1, “INDOLE DERIVATIVES AS ESTROGEN RECEPTOR DEGRADERS” (REGENTS OF THE UNIVERSITY OF MICHIGAN, priority 2022, published 2026).

Molecular target: ER (Homo sapiens (Human), UniProt P03372)
Experiment: Western blot analysis (Compounds B1-B278)
Type: cell-based
Settings: ER degradation by traditional Western blot; DC50 classes
How it was run: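 Compound-treated cells were lysed in RIPA buffer (Tris.HCl pH 7.6, 1% NP-40, deoxycholate, 0.1% SDS) with protease inhibitors; equal protein was resolved on 10% SDS-PAGE, transferred to PVDF and immunoblotted. Band intensities were quantified and normalized to GAPDH.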

ER, sequence (P03372 whole entry): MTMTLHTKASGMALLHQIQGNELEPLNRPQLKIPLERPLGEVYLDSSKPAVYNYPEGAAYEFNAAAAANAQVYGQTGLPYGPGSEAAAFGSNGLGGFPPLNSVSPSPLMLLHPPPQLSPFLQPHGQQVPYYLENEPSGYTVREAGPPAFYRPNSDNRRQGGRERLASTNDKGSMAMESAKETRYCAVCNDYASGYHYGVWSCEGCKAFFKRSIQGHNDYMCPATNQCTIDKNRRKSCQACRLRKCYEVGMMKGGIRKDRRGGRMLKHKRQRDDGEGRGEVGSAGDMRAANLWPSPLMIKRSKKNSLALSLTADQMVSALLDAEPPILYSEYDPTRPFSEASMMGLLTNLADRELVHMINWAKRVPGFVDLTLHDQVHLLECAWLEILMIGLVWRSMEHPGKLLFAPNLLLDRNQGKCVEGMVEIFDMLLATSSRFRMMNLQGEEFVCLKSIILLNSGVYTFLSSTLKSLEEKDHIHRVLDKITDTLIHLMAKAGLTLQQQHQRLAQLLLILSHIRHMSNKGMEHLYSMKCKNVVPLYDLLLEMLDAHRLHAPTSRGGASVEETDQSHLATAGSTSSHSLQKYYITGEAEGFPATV

SMILES	Traditional Western Degradation Potency
C[C@@H]1Cc2c([nH]c3ccccc23)[C@@H](c2ccc(N3CCC(CN4CCC(N5Cc6cc7c(cc6C5)C(=O)N(C5CCC(=O)NC5=O)C7=O)CC4)CC3)cc2)N1CC(F)F (stereo partly drawn) [Compound B226, 6-(1-((1-(4-((1R,3R)-2-(2,2-difluoroethyl)-3-methyl-2,3,4,9-tetrahydro-1H-pyrido[3,4-b]indol-1-yl)phenyl)piperidin-4-yl)methyl)piperidin-4-yl)-2-(2,6-dioxopiperidin-3-yl)-6,7-dihydropyrrolo[3,4-f]isoindole-1,3(2H,5H)-dione]	B (“B”: 10-100 nM)
C[C@@H]1Cc2c([nH]c3ccccc23)[C@@H](c2ccc(N3CCC4(CCN(C(=O)CN5Cc6cc7c(cc6C5)C(=O)N(C5CCC(=O)NC5=O)C7=O)CC4)CC3)cc2)N1CC(F)F (stereo partly drawn) [Compound B227, 6-(2-(9-(4-((1R,3R)-2-(2,2-difluoroethyl)-3-methyl-2,3,4,9-tetrahydro-1H-pyrido[3,4-b]indol-1-yl)phenyl)-3,9-diazaspiro[5.5]undecan-3-yl)-2-oxoethyl)-2-(2,6-dioxopiperidin-3-yl)-6,7-dihydropyrrolo[3,4-f]isoindole-1,3(2H,5H)-dione]	B (“B”: 10-100 nM)
C[C@@H]1Cc2c([nH]c3ccccc23)[C@@H](c2ccc(N3CCC4(CCN(C(=O)CN5Cc6cc7c(cc6C5)C(=O)N(C5CCC(=O)NC5=O)C7=O)CC4)CC3)cn2)N1CC(F)F (stereo partly drawn) [Compound B228, 6-(2-(9-(6-((1S,3R)-2-(2,2-difluoroethyl)-3-methyl-2,3,4,9-tetrahydro-1H-pyrido[3,4-b]indol-1-yl)pyridin-3-yl)-3,9-diazaspiro[5.5]undecan-3-yl)-2-oxoethyl)-2-(2,6-dioxopiperidin-3-yl)-6,7-dihydropyrrolo[3,4-f]isoindole-1,3(2H,5H)-dione]	C (“C”: >100 nM)
C[C@@H]1Cc2c([nH]c3ccccc23)[C@@H](c2ccc(N3CCC4(CCN(C(=O)CN5Cc6cc7c(cc6C5)C(=O)N(C5CCC(=O)NC5=O)C7=O)CC4)CC3)nc2)N1CC(F)F (stereo partly drawn) [Compound B229, 6-(2-(9-(5-((1R,3R)-2-(2,2-difluoroethyl)-3-methyl-2,3,4,9-tetrahydro-1H-pyrido[3,4-b]indol-1-yl)pyridin-2-yl)-3,9-diazaspiro[5.5]undecan-3-yl)-2-oxoethyl)-2-(2,6-dioxopiperidin-3-yl)-6,7-dihydropyrrolo[3,4-f]isoindole-1,3(2H,5H)-dione]	B (“B”: 10-100 nM)
C[C@@H]1Cc2c([nH]c3ccccc23)[C@@H](c2ccc(N3CCC4(CCN(CC(=O)N5Cc6cc7c(cc6C5)C(=O)N(C5CCC(=O)NC5=O)C7=O)CC4)CC3)cn2)N1CC(F)F (stereo partly drawn) [Compound B230, 6-(2-(9-(6-((1S,3R)-2-(2,2-difluoroethyl)-3-methyl-2,3,4,9-tetrahydro-1H-pyrido[3,4-b]indol-1-yl)pyridin-3-yl)-3,9-diazaspiro[5.5]undecan-3-yl)acetyl)-2-(2,6-dioxopiperidin-3-yl)-6,7-dihydropyrrolo[3,4-f]isoindole-1,3(2H,5H)-dione]	C (“C”: >100 nM)
C[C@@H]1Cc2c([nH]c3ccccc23)[C@@H](c2ccc(N3CCC4(CCN(C(=O)CN5Cc6cc7c(cc6C5)C(=O)N(C5CCC(=O)NC5=O)C7=O)CC4)CC3)cc2F)N1CC(F)F (stereo partly drawn) [Compound B231, 6-(2-(9-(4-((1R,3R)-2-(2,2-difluoroethyl)-3-methyl-2,3,4,9-tetrahydro-1H-pyrido[3,4-b]indol-1-yl)-3-fluorophenyl)-3,9-diazaspiro[5.5]undecan-3-yl)-2-oxoethyl)-2-(2,6-dioxopiperidin-3-yl)-6,7-dihydropyrrolo[3,4-f]isoindole-1,3(2H,5H)-dione]	B (“B”: 10-100 nM)
C[C@@H]1Cc2c([nH]c3ccccc23)[C@@H](c2c(F)cc(C3=CCC4(CC3)CCN(C(=O)CN3Cc5cc6c(cc5C3)C(=O)N(C3CCC(=O)NC3=O)C6=O)CC4)cc2F)N1CC(F)F (stereo partly drawn) [Compound B240, 6-(2-(9-(4-((1R,3R)-2-(2,2-difluoroethyl)-3-methyl-2,3,4,9-tetrahydro-1H-pyrido[3,4-b]indol-1-yl)-3,5-difluorophenyl)-3-azaspiro[5.5]undec-8-en-3-yl)-2-oxoethyl)-2-(2,6-dioxopiperidin-3-yl)-6,7-dihydropyrrolo[3,4-f]isoindole-1,3(2H,5H)-dione]	B (“B”: 10-100 nM)

Further lines, results first:

Traditional Western Degradation Potency	SMILES
B (“B”: 10-100 nM)	C[C@@H]1Cc2c([nH]c3ccccc23)[C@@H](c2ccc(N3CCC(C(=O)N4CCC(N5Cc6cc7c(cc6C5)C(=O)N(C5CCC(=O)NC5=O)C7=O)CC4)CC3)cc2)N1CC(F)F (stereo partly drawn) [Compound B225, 6-(1-(1-(4-((1R,3R)-2-(2,2-difluoroethyl)-3-methyl-2,3,4,9-tetrahydro-1H-pyrido[3,4-b]indol-1-yl)phenyl)piperidine-4-carbonyl)piperidin-4-yl)-2-(2,6-dioxopiperidin-3-yl)-6,7-dihydropyrrolo[3,4-f]isoindole-1,3(2H,5H)-dione]
A (“A”: <10 nM)	C[C@@H]1Cc2c([nH]c3ccccc23)[C@@H](c2ccc(N3CCC(C(=O)N4CCC(N5Cc6cc7c(cc6C5)C(=O)N(C5CCC(=O)NC5=O)C7=O)CC4)CC3)cc2F)N1CC(F)F (stereo partly drawn) [Compound B232, 6-(1-(1-(4-((1R,3R)-2-(2,2-difluoroethyl)-3-methyl-2,3,4,9-tetrahydro-1H-pyrido[3,4-b]indol-1-yl)-3-fluorophenyl)piperidine-4-carbonyl)piperidin-4-yl)-2-(2,6-dioxopiperidin-3-yl)-6,7-dihydropyrrolo[3,4-f]isoindole-1,3(2H,5H)-dione]
B (“B”: 10-100 nM)	C[C@@H]1Cc2c([nH]c3ccccc23)[C@@H](c2ccc(C3CCC(C(=O)N4CCC(N5Cc6cc7c(cc6C5)C(=O)N(C5CCC(=O)NC5=O)C7=O)CC4)CC3)cc2F)N1CC(F)F (stereo partly drawn) [Compound B233, 6-(1-(4-(4-((1R,3R)-2-(2,2-difluoroethyl)-3-methyl-2,3,4,9-tetrahydro-1H-pyrido[3,4-b]indol-1-yl)-3-fluorophenyl)cyclohexane-1-carbonyl)piperidin-4-yl)-2-(2,6-dioxopiperidin-3-yl)-6,7-dihydropyrrolo[3,4-f]isoindole-1,3(2H,5H)-dione]
C (“C”: >100 nM)	C[C@@H]1Cc2c([nH]c3ccccc23)[C@@H](c2ccc(C3CCC(C(=O)N4CCC(N5Cc6cc7c(cc6C5)C(=O)N(C5CCC(=O)NC5=O)C7=O)CC4)CC3)cn2)N1CC(F)F (stereo partly drawn) [Compound B234, 6-(1-(4-(6-((1S,3R)-2-(2,2-difluoroethyl)-3-methyl-2,3,4,9-tetrahydro-1H-pyrido[3,4-b]indol-1-yl)pyridin-3-yl)cyclohexane-1-carbonyl)piperidin-4-yl)-2-(2,6-dioxopiperidin-3-yl)-6,7-dihydropyrrolo[3,4-f]isoindole-1,3(2H,5H)-dione]
C (“C”: >100 nM)	C[C@@H]1Cc2c([nH]c3ccccc23)[C@@H](c2ccc(C3=CCC(C(=O)N4CCC(N5Cc6cc7c(cc6C5)C(=O)N(C5CCC(=O)NC5=O)C7=O)CC4)CC3)nc2)N1CC(F)F (stereo partly drawn) [Compound B235, 6-(1-(4-(5-((1R,3R)-2-(2,2-difluoroethyl)-3-methyl-2,3,4,9-tetrahydro-1H-pyrido[3,4-b]indol-1-yl)pyridin-2-yl)cyclohex-3-ene-1-carbonyl)piperidin-4-yl)-2-(2,6-dioxopiperidin-3-yl)-6,7-dihydropyrrolo[3,4-f]isoindole-1,3(2H,5H)-dione]
B (“B”: 10-100 nM)	C[C@@H]1Cc2c([nH]c3ccccc23)[C@@H](c2cnc(C3=CCC(C(=O)N4CCC(N5Cc6cc7c(cc6C5)C(=O)N(C5CCC(=O)NC5=O)C7=O)CC4)CC3)nc2)N1CC(F)F (stereo partly drawn) [Compound B236, 6-(1-(4-(5-((1R,3R)-2-(2,2-difluoroethyl)-3-methyl-2,3,4,9-tetrahydro-1H-pyrido[3,4-b]indol-1-yl)pyrimidin-2-yl)cyclohex-3-ene-1-carbonyl)piperidin-4-yl)-2-(2,6-dioxopiperidin-3-yl)-6,7-dihydropyrrolo[3,4-f]isoindole-1,3(2H,5H)-dione]
B (“B”: 10-100 nM)	C[C@@H]1Cc2c([nH]c3ccccc23)[C@@H](c2ccc(C3=CCC(C(=O)N4CCC(N5Cc6cc7c(cc6C5)C(=O)N(C5CCC(=O)NC5=O)C7=O)CC4)CC3)cc2)N1CC(F)F (stereo partly drawn) [Compound B237, 6-(1-(4′-((1R,3R)-2-(2,2-difluoroethyl)-3-methyl-2,3,4,9-tetrahydro-1H-pyrido[3,4-b]indol-1-yl)-2,3,4,5-tetrahydro-[1,1′-biphenyl]-4-carbonyl)piperidin-4-yl)-2-(2,6-dioxopiperidin-3-yl)-6,7-dihydropyrrolo[3,4-f]isoindole-1,3(2H,5H)-dione]
C (“C”: >100 nM)	C[C@@H]1Cc2c([nH]c3ccccc23)[C@@H](c2ccc(C3CCC(C(=O)N4CCC(N5Cc6cc7c(cc6C5)C(=O)N(C5CCC(=O)NC5=O)C7=O)CC4)CC3)nc2)N1CC(F)F (stereo partly drawn) [Compound B238, 6-(1-(4-(5-((1R,3R)-2-(2,2-difluoroethyl)-3-methyl-2,3,4,9-tetrahydro-1H-pyrido[3,4-b]indol-1-yl)pyridin-2-yl)cyclohexane-1-carbonyl)piperidin-4-yl)-2-(2,6-dioxopiperidin-3-yl)-6,7-dihydropyrrolo[3,4-f]isoindole-1,3(2H,5H)-dione]
B (“B”: 10-100 nM)	C[C@@H]1Cc2c([nH]c3ccccc23)[C@@H](c2ccc(C3CCC(C(=O)N4CCC(N5Cc6cc7c(cc6C5)C(=O)N(C5CCC(=O)NC5=O)C7=O)CC4)CC3)c(F)c2)N1CC(F)F (stereo partly drawn) [Compound B239, 6-(1-(4-(4-((1R,3R)-2-(2,2-difluoroethyl)-3-methyl-2,3,4,9-tetrahydro-1H-pyrido[3,4-b]indol-1-yl)-2-fluorophenyl)cyclohexane-1-carbonyl)piperidin-4-yl)-2-(2,6-dioxopiperidin-3-yl)-6,7-dihydropyrrolo[3,4-f]isoindole-1,3(2H,5H)-dione]
